Tests used:
[1] = tested on: RA model; assay: Rheumatoid arthritis (RA) model (Freund's adjuvant complete); assay type: in vivo, Wistar rats; settings: RA rats, gavage 10 mg/kg once a day, 21 days; for IL-10 in serum / IL-17 in serum: ELISA; for Joint score (arthritis score): maximum 16 points
Procedure: Freund's Adjuvant Complete (FCA, purchased from Sigma, USA); IL-10 ELISA kit (Lianke Biotechnology Co., Ltd.); IL-17 ELISA kit (Raybiotech, USA). Eighteen 5-week-old female Wistar rats were randomly divided into the control group, RA model group, and CLY series compound treatment group, with 6 rats in each group. The control group: disinfected the right toe of rats with 75% alcohol, and injected 0.15 mL physiological saline subcutaneously into the right toe of rats. The RA model group: On the first day of the experiment, each rat was routinely disinfected, and 0.15 mL of FCA was injected subcutaneously into the right foot of the rat. The CLY series compound treatment group: On the first day after the experiment, each rat was routinely disinfected, and 0.15 mL of FCA was injected subcutaneously into the right plantar of the rat. After 7 days, CLY series compound was administered by gavage with a dose of 10 mg/kg once a day. The RA model group and control group were administered by gavage with normal saline (10 mg/kg·d) every day for 21 consecutive days. On the 21st day after the intervention of CLY series compounds, 3 mL of blood was collected from the heart of rats, and the serum was isolated. The levels of IL-10 and IL-17 in the serum of rats were detected by ELISA. After the 21st day of intervention, the arthritis score of each group of rats was measured, and the swelling degree of the right toe joint of each group of rats was measured. According to the inflammatory reaction of RA rats, the severity of the ankle joint was scored as 0 to 4, which was normal; 1 point, slightly red and slightly swollen ankle joint; 2 points: erythema and slight swelling from ankle joint to metatarsal joint or metacarpal joint; 3 points: erythema and moderate swelling from ankle joint to metacarpal joint or metatarsophalangeal joint; 4 points, the ankle joint to toe joint were severely red and swollen. Added the limb scores of each rat as the arthritis score, and the maximum score was 16 points.

[2] = tested on: acute GVHD mice; assay: Mouse model of acute graft-versus-host disease; assay type: in vivo, BALB/c mice; settings: 5 mg/kg/d intravenously; for pathological changes of liver: 2 weeks after transplantation, hematoxylin-eosin; for clinical symptom score (GVHD): 11th day after transplantation, acute GVHD group 7.48±0.77; for survival rate of mice: Kaplan-Meier, three weeks after transplantation, acute GVHD group 12.13%
Procedure: Preparation of bone marrow cells: the donor mice were sacrificed by cervical dislocation, soaked in 75% ethanol for 5 minutes, and the two femurs and tibia of the mice were taken out under sterile conditions in the ultra-clean table, and placed in RPMI1640 medium containing 2% fetal bovine serum. Rinsed the bone marrow cavity with RPMI1640 culture medium, took out the bone marrow cells, blew them into the bone marrow suspension with sterile washing tube, filtered them with a 200 mesh filter, centrifuged for 10 min at 1500 r/min, collected the cell precipitates, and added physiological saline for resuspension. In addition, took a small amount of cell suspension and counted the number of nucleated cells after removing the red blood cells from the red blood cell lysate. And adjusted the concentration of nucleated cells in bone marrow suspension to 5×1010 L-1.
Preparation of spleen mononuclear cells: cut the spleen envelope aseptically, put it on a 200-mesh filter screen, soaked it in RPMI1640 medium containing 2% fetal bovine serum by volume, gently grinded the spleen with the handle of a sterile syringe, washed the filter screen several times with the culture medium, collected the filtered spleen cell suspension, centrifuged it at 1500 r/min for 10 min, and collected the spleen cell precipitation. After PBS resuspension, it was blown into a single cell suspension, gently placed on the upper layer of mouse spleen lymphocyte separation solution, centrifuged at 1800 r/min for 20 min, and white membrane cells were collected. PBS was washed twice. After cell count, the cell density was adjusted to 5×1010 L-1, and put in a 4° C. refrigerator for use.
C57BL/6 mice were used as bone marrow transplantation donors and BABL/c mice as recipients. BABL/c mice were randomly divided into the control group, model group, and CLY treatment group (each group was injected with 5 mg/kg/d compound CLY-1, CLY-2, or CLY-8 intravenously) according to the number of body weight, with 6 mice in each group. One week before transplantation, BALB/c mice were fed sterile acidified water containing 200 mg/L gentamicin, and mice were given 8.5 Gy whole-body irradiation (cesium source) within 24 hours before transplantation. Model group and CLY-1 group, CLY-2 group, and CLY-8 group were injected with C57BL/6 mouse bone marrow nucleated cells (including cell 1×107) and spleen mononuclear cells (including cell 5×106) 0.5 mL of mixed solution was used to establish acute GVHD model in mice, and 0.5 mL of normal saline was infused into the tail vein of BABL/c mice in the control group. CLY-1 group, CLY-2 group, and CLY-8 group were injected with CLY compound solution of 5 mg/kg/d intravenously, and the other groups were injected with saline of 5 mg/kg/d.
1.3.1 GVHD symptom score of mice: observed the general conditions of mice every day after transplantation, including body mass, fur, posture, activity, diarrhea, and mental state, and determined whether the mice had acute GVHD. According to the clinical GVHD symptom scoring standard, the clinical GVHD symptoms of mice in each group were scored 11 days after transplantation.
1.3.2 Analysis of mouse survival time: collected the survival data of mice in each group three weeks after transplantation, drew the survival curve by the Kaplan-Meier method, and compared the differences between the survival rates of mice in each group by Log-rank analysis method.
1.3.3 Histopathological examination: two weeks after transplantation, three mice with GVHD were taken from each group, and the back skin tissue, liver, and small intestine tissue were taken. 40 g/L paraformaldehyde was fixed, paraffin was fixed and embedded, hematoxylin-eosin staining was performed, and the pathological changes of each tissue were observed under the light microscope.

Row | SMILES | Body mass [1] | Swelling degree (right toe joint) [1] | IL-10 in serum [1] | IL-17 in serum [1] | Joint score (arthritis score) [1] | pathological changes of liver [2] | clinical symptom score (GVHD) [2] | survival rate of mice [2]
1 | CCN1CCC[C@@H](N(C(=O)c2ccc(-n3nnc4cccnc43)cc2)c2ncccc2Cl)C1 [CLY-2, (R)-4-(3H-[1,2,3]triazolo[4,5-b]pyridin-3-yl)-N-(3-chloropyridin-2-yl)-N-(1-ethylpiperidin-3-yl)benzamide] | 358.2 ± 13.92 g | 9.4 ± 0.53 mm | 67.03 ± 7.02 pg/mL | 46.23 ± 3.96 pg/mL | 4.21 ± 0.29 | only small necrotic lesions | 4.68±0.42 | 58.79%
2 | CN1CCC[C@@H](N(C(=O)c2ccc(-n3nnc4cccnc43)cc2)c2ncccc2Cl)C1 [CLY-1, (R)-4-(3H-[1,2,3]triazolo[4,5-b]pyridin-3-yl)-N-(3-chloropyridin-2-yl)-N-(1-methylpiperidin-3-yl)benzamide] | 354.5 ± 13.48 g | 9.7 ± 0.68 mm | 65.36 ± 6.78 pg/mL | 46.15 ± 4.23 pg/mL | 4.35 ± 0.37 | only small necrotic lesions | 5.28±0.53 | 61.26%
3 | O=C(c1ccc(-n2nnc3cccnc32)cc1)N(c1ncccc1Cl)[C@@H]1CCNC1 [CLY-8, (R)-4-(3H-[1,2,3]triazolo[4,5-b]pyridin-3-yl)-N-(3-chloropyridin-2-yl)-N-(pyrrolidin-3-yl)benzamide] | 363.5 ± 13.63 g | 9.5 ± 0.72 mm | 66.75 ± 6.78 pg/mL | 43.51 ± 4.16 pg/mL | 4.32 ± 0.41 | only small necrotic lesions | 4.56±0.39 | 63.48%
4 | O=C(c1ccc(-c2ccccc2Cl)cc1)N(c1ncccc1Cl)[C@@H]1CCCNC1 [CLY-36] | 352.6 ± 12.96 g | 9.3 ± 0.51 mm | 58.96 ± 5.89 pg/mL | 44.18 ± 3.97 pg/mL | 4.46 ± 0.42 |  |  | 

Source: patent US20240300945A1, “CLY SERIES COMPOUND, PREPARATION METHOD THEREFOR AND USE THEREOF IN PREPARATION OF DRUGS” (NANJING WELLBEST PHARMACEUTICAL CO., LTD, priority 2021, published 2024)
